Measured values: US20210308173A1, “PHARMACEUTICAL COMPOSITION COMPRISING CYCLODEXTRIN COMPLEXES OF ANETHOLE TRITHIONE OR DERIVATIVES THEREOF” (priority 2018, published 2021)
In brackets after ≈: the same amount, converted by molar mass. Like-named read-outs stand apart in the source and are kept apart here.

What was measured:
Assay type in all cases: physicochemical
[1] = Co-solvent addition: AOL solubility; details: for solubility at 4 h: aqueous SBE-β-CD solution, aqueous with cosolvent or surfactant or cyclodextrin, thermodynamic from solid, SBE-β-CD 30% (w/w)
Protocol: SBE-β-CD compatible excipients, namely polyethylene glycol and polysorbate (Tween), were evaluated for their AOL aqueous solubilizing power. Screening was carried out in same conditions as that of solubilization screening by cyclodextrins (see Example 3).
Briefly, 20% (w/w) solutions of each excipient were prepared. An excess of AOL was added and the solutions were analyzed by HPLC after 4 hours of stirring.
The effect of the combination of SBE-β-CD and Tween 80 was measured in a comparative assay by solubilizing AOL in: (A) Tween 80, 10% (w/w); (B) SBE-β-CD 10% (w/w) (C) Tween 80 and SBE-β-CD 10% (w/w) each; (D) Tween 80 20% (w/w) (E) SBE-β-CD 20% (w/w); and (F) Tween 80 and SBE-β-CD 20% (w/w) each.
Further assays, resumed in Tables 7 and 8, confirmed that Tween 80/SBE-β-CD is a promising excipient mixture for the solubilization of AOL.

[2] = Stability versus formulation according to Dollo et al.; details: formulation of the invention vs formulation according to Dollo et al.
Text: Consequently, the formulations wherein anethole trithione and derivatives thereof present an improved solubility and stability are still an unmet need.

[3] = Solubility testing in buffer containing media
Protocol: The solubility of AOL was tested in aqueous HP-β-CD and SBE-β-CD media at various concentrations and pH levels at room temperature. Some initial tests, where the pH of the formulations was adjusted only by addition of HCl or NaOH solutions, did evidence high variation in pH and difficulties to reach the target pH. Therefore, it was decided to prepare samples containing a buffering agent to get a stable pH and to facilitate the preparation of the formulations.
A citrate buffer was used at pH 5.5 and phosphate buffer were used at pH 6.5 and 7.5. The solubility (mg/mL) is the mean of 2 independent replicates.

## COc1ccc(-c2cc(=S)ss2)cc1 [AOL, 5-(4-methoxyphenyl)-3H-1,2-dithiole-3-thione]
[1]; Tween 80 2% (w/w)
  solubility at 4 h: 630 µg/mL
[1]; Tween 80 10% (w/w)
  solubility at 4 h: 616 µg/mL
[1]; Tween 80 20% (w/w)
  solubility at 4 h: 1280 µg/mL
[1]; co-solvent 0% (w/w)
  solubility at 4 h: 685 µg/mL
[1]; cyclodextrin media
  influence of PVP 12PF on solubility: did not had any influence
[1]; same temperature and concentration of excipient
  solubility in Tween 80 compared with SBE-β-CD solutions: higher solubility in Tween 80
[2]
  stability of the active compound: significantly more stable
[3]; aqueous SBE-β-CD medium with buffer, pH 5.5, aqueous with cosolvent or surfactant or cyclodextrin, SBE-β-CD 10.0% (w/w), Citrate (100 μM), room temperature, read-out: AOL solubility
  solubility: 165 µg/mL (≈ 686 µM)
[3]; aqueous SBE-β-CD medium with buffer, pH 5.5, aqueous with cosolvent or surfactant or cyclodextrin, SBE-β-CD 40.0% (w/w), Citrate (100 μM), room temperature, read-out: AOL solubility
  solubility: 1140 µg/mL (≈ 4730 µM)
[3]; aqueous SBE-β-CD medium with buffer, pH 6.5, aqueous with cosolvent or surfactant or cyclodextrin, SBE-β-CD 10.0% (w/w), Phosphate 6.5 (100 μM), room temperature, read-out: AOL solubility
  solubility: 168 µg/mL (≈ 699 µM)
[3]; aqueous SBE-β-CD medium with buffer, pH 6.5, aqueous with cosolvent or surfactant or cyclodextrin, SBE-β-CD 40.0% (w/w), Phosphate 6.5 (100 μM), room temperature, read-out: AOL solubility
  solubility: 1210 µg/mL (≈ 5020 µM)
[3]; aqueous SBE-β-CD medium with buffer, pH 7.5, aqueous with cosolvent or surfactant or cyclodextrin, SBE-β-CD 40.0% (w/w), Phosphate 7.5 (100 μM), room temperature, read-out: AOL solubility
  solubility: 1180 µg/mL (≈ 4920 µM)
[3]; buffered aqueous HP-β-CD medium, pH 5.5, aqueous with cosolvent or surfactant or cyclodextrin, HP-β-CD 10.0% (w/w), Citrate (100 μM), room temperature, read-out: AOL solubility
  solubility: 79 µg/mL (≈ 329 µM)
[3]; buffered aqueous HP-β-CD medium, pH 5.5, aqueous with cosolvent or surfactant or cyclodextrin, HP-β-CD 20.0% (w/w), Citrate (100 μM), room temperature, read-out: AOL solubility
  solubility: 212 µg/mL (≈ 882 µM)
[3]; buffered aqueous HP-β-CD medium, pH 5.5, aqueous with cosolvent or surfactant or cyclodextrin, HP-β-CD 30.0% (w/w), Citrate (100 μM), room temperature, read-out: AOL solubility
  solubility: 505 µg/mL (≈ 2100 µM)
[3]; buffered aqueous HP-β-CD medium, pH 5.5, aqueous with cosolvent or surfactant or cyclodextrin, HP-β-CD 40.0% (w/w), Citrate (100 μM), room temperature, read-out: AOL solubility
  solubility: 721 µg/mL (≈ 3000 µM)
[3]; buffered aqueous HP-β-CD medium, pH 6.5, aqueous with cosolvent or surfactant or cyclodextrin, HP-β-CD 10.0% (w/w), Phosphate 6.5 (100 μM), room temperature, read-out: AOL solubility
  solubility: 111 µg/mL (≈ 462 µM)
[3]; buffered aqueous HP-β-CD medium, pH 6.5, aqueous with cosolvent or surfactant or cyclodextrin, HP-β-CD 20.0% (w/w), Phosphate 6.5 (100 μM), room temperature, read-out: AOL solubility
  solubility: 274 µg/mL (≈ 1140 µM)
[3]; buffered aqueous HP-β-CD medium, pH 6.5, aqueous with cosolvent or surfactant or cyclodextrin, HP-β-CD 30.0% (w/w), Phosphate 6.5 (100 μM), room temperature, read-out: AOL solubility
  solubility: 480 µg/mL (≈ 2000 µM)
[3]; buffered aqueous HP-β-CD medium, pH 6.5, aqueous with cosolvent or surfactant or cyclodextrin, HP-β-CD 40.0% (w/w), Phosphate 6.5 (100 μM), room temperature, read-out: AOL solubility
  solubility: 676 µg/mL (≈ 2810 µM)
[3]; buffered aqueous HP-β-CD medium, pH 7.5, aqueous with cosolvent or surfactant or cyclodextrin, HP-β-CD 10.0% (w/w), Phosphate 7.5 (100 μM), room temperature, read-out: AOL solubility
  solubility: 112 µg/mL (≈ 466 µM)
[3]; buffered aqueous HP-β-CD medium, pH 7.5, aqueous with cosolvent or surfactant or cyclodextrin, HP-β-CD 20.0% (w/w), Phosphate 7.5 (100 μM), room temperature, read-out: AOL solubility
  solubility: 283 µg/mL (≈ 1180 µM)
[3]; buffered aqueous HP-β-CD medium, pH 7.5, aqueous with cosolvent or surfactant or cyclodextrin, HP-β-CD 30.0% (w/w), Phosphate 7.5 (100 μM), room temperature, read-out: AOL solubility
  solubility: 540 µg/mL (≈ 2250 µM)
[3]; buffered aqueous HP-β-CD medium, pH 7.5, aqueous with cosolvent or surfactant or cyclodextrin, HP-β-CD 40.0% (w/w), Phosphate 7.5 (100 μM), room temperature, read-out: AOL solubility
  solubility: 723 µg/mL (≈ 3010 µM)
[3]; buffered aqueous SBE-β-CD medium, pH 5.5, aqueous with cosolvent or surfactant or cyclodextrin, SBE-β-CD 20.0% (w/w), Citrate (100 μM), room temperature, read-out: AOL solubility
  solubility: 369 µg/mL (≈ 1540 µM)
[3]; buffered aqueous SBE-β-CD medium, pH 5.5, aqueous with cosolvent or surfactant or cyclodextrin, SBE-β-CD 30.0% (w/w), Citrate (100 μM), room temperature, read-out: AOL solubility
  solubility: 675 µg/mL (≈ 2810 µM)
[3]; buffered aqueous SBE-β-CD medium, pH 6.5, aqueous with cosolvent or surfactant or cyclodextrin, SBE-β-CD 20.0% (w/w), Phosphate 6.5 (100 μM), room temperature, read-out: AOL solubility
  solubility: 382 µg/mL (≈ 1590 µM)
[3]; buffered aqueous SBE-β-CD medium, pH 6.5, aqueous with cosolvent or surfactant or cyclodextrin, SBE-β-CD 30.0% (w/w), Phosphate 6.5 (100 μM), room temperature, read-out: AOL solubility
  solubility: 676 µg/mL (≈ 2810 µM)
[3]; buffered aqueous SBE-β-CD medium, pH 7.5, aqueous with cosolvent or surfactant or cyclodextrin, SBE-β-CD 10.0% (w/w), Phosphate 7.5 (100 μM), room temperature, read-out: AOL solubility
  solubility: 170 µg/mL (≈ 707 µM)
[3]; buffered aqueous SBE-β-CD medium, pH 7.5, aqueous with cosolvent or surfactant or cyclodextrin, SBE-β-CD 20.0% (w/w), Phosphate 7.5 (100 μM), room temperature, read-out: AOL solubility
  solubility: 375 µg/mL (≈ 1560 µM)
[3]; buffered aqueous SBE-β-CD medium, pH 7.5, aqueous with cosolvent or surfactant or cyclodextrin, SBE-β-CD 30.0% (w/w), Phosphate 7.5 (100 μM), room temperature, read-out: AOL solubility
  solubility: 685 µg/mL (≈ 2850 µM)
[3]; buffered aqueous cyclodextrin solution, pH 6.5, aqueous with cosolvent or surfactant or cyclodextrin, 40% SBE-β-cyclodextrin, pH 6.5 phosphate buffer, read-out: highest solubility value
  solubility: 1210 µg/mL (≈ 5020 µM)
[3]; buffered aqueous cyclodextrin solution, pH 7.5, aqueous with cosolvent or surfactant or cyclodextrin, 40% HP-β-cyclodextrin, pH 7.5 phosphate buffer, read-out: highest solubility value
  solubility: 723 µg/mL (≈ 3010 µM)
